Reference: patent US11767286B2, “Phenylpropionate compound, preparation method for same, and applications thereof” (SUZHOU PHARMAVAN CO., LTD, priority 2017, dated 2023)

Tested on: SD rat model of focal ischemia-reperfusion
Assay: Pharmacodynamic (administration) time window in SD rat model of focal ischemia-reperfusion (MCAO)
Type: in vivo, SD rats
Settings: for Score of Symptoms of Neurological Deficits: 48 h, modified Bederson 5-point scale; for Infarction area: evaluated after 48 h, mean ± standard error
Experimental: In this example, Compound A was measured for a pharmacodynamic time window by a method described below.
Trial method: A cerebral ischemia reperfusion model of middle cerebral artery occlusion (MCAO) was prepared by an internal carotid artery suture method. An animal was anesthetized with 10% chloral hydrate (3.6 mL/kg) and then fixed on an operating table in a supine position. Its skin was disinfected, and a midline incision was made on the neck. The right common carotid artery, external carotid artery, and internal carotid artery were separated, the vagus nerve was gently striped off, and the external carotid artery was ligated and cut. The common carotid artery was clamped at the proximal end. […] The nylon thread was advanced through the bifurcation of the common carotid artery into the internal carotid artery, and then was slowly inserted until there was slight resistance (about 20 mm from the bifurcation) to block all the blood supply to the middle cerebral artery. 2 h after cerebral ischemia, the nylon thread was gently pulled out to restore blood supply for reperfusion, and the neck skin was sutured and disinfected. The animal was put back in a cage and raised. During the modeling operation, animals with abnormal conditions due to anesthesia, surgery, etc. were excluded, and successfully modeled animals were randomly grouped. Schemes were set according to trial doses, and drug treatment was given 3 h, 4 h, and 5 h after cerebral ischemia-reperfusion. Death conditions were recorded every day after the surgery, and indicators were evaluated after 48 h. In the whole trial process, general conditions were observed, mainly including: death, coma, breathing, urine and feces traits, hair colors, mental status, vomiting and vomitus, bleeding, convulsion, spasm, etc. Abnormal animals due to unexpected factors were excluded. Finally, unblinding was conducted by a person who made blind trials.
Evaluated indicator: (1) Evaluation of symptoms of neurological deficits: The symptoms of neurological deficits were evaluated by using a modified Bederson 5-point scale. A single-blind method was used for evaluating the symptoms of neurological deficits in rats with brain trauma. That is, a trial designer marked animals in accordance with groups, and an experimenter who scored the symptoms of neurological deficits had no knowledge of how the animals were grouped. After scoring was completed, the scorer submitted scoring results for various marks to the designer, and the designer performed unblinding to obtain scores of animals in each trial group. (2) Measurement of cerebral infarction area: A method reported in the literature was used. An animal was anesthetized with 10% chloral hydrate and decapitated to collect brain. The olfactory bulb, cerebellum and lower brain stem were removed. Blood stains on the surface of the brain were rinsed with normal saline, the residual water stains on the surface were absorbed, and the brain was placed at −80° C. for 7 min. After the brain was taken out, a coronal section was immediately made at downwards and vertical to the sight intersection plane, and brain slices were made every 2 mm backwards. Brain slices were placed in a TTC (20 g/L) dye solution prepared with 0.9% normal saline, and incubated at 37° C. for 90 min. Normal brain tissues were stained deep red, and ischemic brain tissues were pale-white. After rinsed with normal saline, the brain sections were quickly arranged in order from front to back, the residual water stains on the surface were absorbed to dryness, and pictures were taken. Image analysis software was used for statistics on the pictures. Ischemic area (white region) on the right side and total area on the right side were delineated, and a percentage of the cerebral infarction area was calculated by the following formula: […]
Statistical analysis: Quantitative data is expressed as mean value±standard error. […]

[1] = drug given 3 h after reperfusion
[2] = drug given 4 h after reperfusion
[3] = drug given 5 h after reperfusion

Question: What does the source list for `COc1cc(CCC(=O)O[C@H]2C[C@H]3CC[C@]2(C)C3(C)C)cc(F)c1O` [Compound A]?
Answer: treatment time window (after ischemia (2 h ischemia then reperfusion)): not less than 6 h; Score of Symptoms of Neurological Deficits [1]: 2.04 ± 0.12; Infarction area [1]: 23.56 ± 2.86 %; Score of Symptoms of Neurological Deficits [2]: 2.13 ± 0.14; Infarction area [2]: 24.54 ± 2.53 %; Score of Symptoms of Neurological Deficits [3]: 2.42 ± 0.17; Infarction area [3]: 32.43 ± 2.13%
